According to article PMC10574767, “Extractives from Artemisia afra with Anti-Bacterial and Anti-Fungal Properties” (Plants, 2023):
In brackets after ≈: the same amount, converted by molar mass. Read-outs that look alike come from different tables or passages of the source.

Legend:
B. subtilis = tested on: B. subtilis; parameters: method as in PMID 24575401; details: cited from earlier work
Salmonella sp. = tested on: Salmonella sp.; parameters: method as in PMID 24575401; details: cited from earlier work
S. aureus = tested on: S. aureus; parameters: method as in PMID 24575401; details: cited from earlier work
HeLa cancer cells = tested on: HeLa cancer cells; parameters: method as in doi:10.1016/j.sajb.2015.08.016; details: dose-dependent cytotoxicity; cited from earlier work
[1] = tested on: Enterococcus faecalis ATCC 29212; test: Serial dilution microplate MIC; format: cell-based; details: Table 2; for MIC: Enterococcus faecalis, read-out: Minimum inhibitory concentration (MIC) E. faecalis; for Selectivity index E. faecalis: in brackets, Vero LC50 vs MIC
Experimental: (§1) The MIC value of the plant extracts and isolated compounds against one fungal and five bacterial strains (Salmonella Typhimurium ATCC 39183, Escherichia coli ATCC 25922, Pseudomonas aeruginosa ATCC 27853, Staphylococcus aureus ATCC 29213, Enterococcus faecalis ATCC 29212, and fungi culture, Candida albicans ATCC 10231) was assessed in triplicate using the serial dilution microplate method; acetone and DMSO were used as solvents. Bacterial cultures were grown in Mueller Hinton broth (Sigma Aldrich, St. Louis, MO, USA) overnight and adjusted to McFarland standard 1 (1 × 10^8 CFU/mL). Then, 100 µL of samples were transferred into the first well of a sterile 96-well microtiter plate, which contained 100 µL of water and a 1:1 serial dilution with sterilized distilled water was carried out. In each well, 100 µL of appropriately adjusted fungal or bacterial cultures were added, and the bacteria were subjected to final concentrations of 250–3.9 μg/mL for pure compounds and 2.5–0.02 mg/mL for crude extracts. Amphotericin-B and Gentamicin (Virbac, Carros, France) served as positive controls for fungi and bacteria, respectively. For sterility, water served as control, while acetone served as a negative control. The microplates were then incubated for 24 h at 37 °C. Following incubation, 40 µL of 0.2 mg/mL p-iodonitrotetrazolium violet (INT, Sigma Aldrich) dissolved in water (hot) was added to the wells before being incubated at 37 °C for another 2 h. In the case of fungi, the INT was added before incubation. The MIC was measured visually as the lowest concentration of the compounds/extracts that inhibited proliferation.

[2] = tested on: Escherichia coli ATCC 25922; test: Serial dilution microplate MIC; format: cell-based; details: Table 2; for MIC: Escherichia coli, ATCC25922, isolated compounds, read-out: Minimum inhibitory concentration (MIC) E. coli; for Selectivity index E. coli: in brackets, Vero LC50 vs MIC
Experimental: as §1

[3] = tested on: Salmonella Typhimurium ATCC 39183; test: Serial dilution microplate MIC; format: cell-based; details: for MIC: Salmonella enterica; for Selectivity index S. Typhimurium: in brackets, Vero LC50 vs MIC
Experimental: as §1

[4] = tested on: Staphylococcus aureus ATCC 29213; test: Serial dilution microplate MIC; format: cell-based; details: Table 2; for MIC: Staphylococcus aureus, read-out: Minimum inhibitory concentration (MIC) S. aureus; for Selectivity index S. aureus: in brackets, Vero LC50 vs MIC
Experimental: as §1

[5] = tested on: Pseudomonas aeruginosa ATCC 27853; test: Serial dilution microplate MIC; format: cell-based; details: Table 2; for MIC: Pseudomonas aeruginosa, read-out: Minimum inhibitory concentration (MIC) P. aeruginosa; for Selectivity index P. aeruginosa: in brackets, Vero LC50 vs MIC
Experimental: as §1

in vitro = test: in vitro
Experimental: Cytotoxicity of compounds and extracts was tested against mammalian cells using the MTT assay. MCF-7 cancer cells were grown in a 5% CO2 incubator in Dulbecco’s Modified Eagle’s Medium (DMEM, Highveld Biological, Johannesburg, South Africa) supplemented with 10% fetal calf serum (Adcock-Ingram, Johannesburg, South Africa) and 1% penicillin-streptomycin (10,000 U/mL and 10 mg/mL streptomycin, Sigma Aldrich). In a 5% CO2 incubator, Vero cells were grown in a minimal essential medium (MEM, Highveld Biological, South Africa) supplemented with 5% fetal calf serum (Adcock-Ingram) and 0.1% gentamicin (Virbac). Cell suspensions were obtained from 70–80% confluent monolayer cultures and were plated in 96-well cell culture plates at a density of 1 × 10^4. Plates were incubated in a 5% CO2 incubator for 24 h at 37 °C. The cells were exposed to the extracts or compounds dissolved in the media at different concentrations for 48 h. Positive and negative controls were doxorubicin (Pfizer, New York, NYC, USA) and acetone or DMSO, respectively. After that, the wells were rinsed with phosphate-buffered saline (PBS, Sigma) and 200 µL of fresh medium was poured into the wells. Thirty microlitres (5 mg/mL) of MTT (Sigma) dissolved in PBS was added to each well, and the plates were incubated at 37 °C for 4 h. The medium from the wells was removed, rinsed, and 50 µL of 100% DMSO was added to the wells. At a wavelength of 570 nm, absorbance was measured using a microplate reader (BioTek Synergy, Beijing, China). Each sample concentration was tested in quadruplicate in two repeats (n = 8), and the concentration causing 50% inhibition of cell viability (LC50) was calculated. Selectivity index (SI) values for the extracts/compounds were obtained by dividing cytotoxicity LC50 values of normal (Vero) cells by those of the cancer cells.

[6] = tested on: one fungal and five bacterial strains; test: Serial dilution microplate MIC, whole panel; format: cell-based; details: isolated compounds, highest concentration 250 µg/mL
Experimental: as §1

[7] = tested on: Candida albicans ATCC 10231; test: Serial dilution microplate MIC (fungi); format: cell-based; details: Table 2; for MIC: Candida albicans, read-out: Minimum inhibitory concentration (MIC) C. albicans; for Selectivity index C. albicans: in brackets, Vero LC50 vs MIC
Experimental: as §1

Staphylococcus aureus = tested on: Staphylococcus aureus; parameters: method as in PMID 19007012; details: filter paper slice method; cited from earlier work
IL-6 production = tested on: IL-6 production; parameters: method as in PMID 25573777; details: TNF-α stimulated MG-63 cells; cited from earlier work
[8] = tested on: Staphylococcus aureus ATCC 43300; parameters: method as in PMID 31119085; details: cited from earlier work
[9] = tested on: Enterococcus faecium UCLA 192; parameters: method as in PMID 31119085; details: cited from earlier work
[10] = parameters: method as in PMID 23878606; details: read-out: EC50 scavenging ABTS; cited from earlier work
[11] = tested on: Stenotrophomonas maltophila DMST 19079; parameters: method as in PMID 31119085; details: cited from earlier work
[12] = parameters: method as in PMID 22693528; details: cited from earlier work
[13] = parameters: method as in PMID 23878606; details: read-out: EC50 scavenging DPPH; cited from earlier work
Candida albicans = tested on: Candida albicans; parameters: method as in PMID 22693528; details: cited from earlier work
[14] = tested on: normal human primary fibroblasts; parameters: method as in ref 66 = [66]; 66. NCCLS 2007 Available online: http://www.nccls.org (accessed on 15 March 2022); details: cited from earlier work
E. faecalis = tested on: E. faecalis; parameters: method as in doi:10.1590/0102-695X20142413348; details: cited from earlier work
HepG2 cells = tested on: HepG2 cells; parameters: method as in ref 66 = [66]; 66. NCCLS 2007 Available online: http://www.nccls.org (accessed on 15 March 2022); details: cited from earlier work
[15] = tested on: S. aureus, MRSA, Proteus mirabilis, S. typhi, K. pneumoniae, E. coli, Bacillus subtilis, C. albicans and C. tropicalis; details: 200µg/mL; cited from earlier work
Huh7 cells = tested on: Huh7 cells; parameters: method as in ref 66 = [66]; 66. NCCLS 2007 Available online: http://www.nccls.org (accessed on 15 March 2022); details: cited from earlier work
P. aeruginosa = tested on: P. aeruginosa; parameters: method as in doi:10.1590/0102-695X20142413348; details: cited from earlier work
[16] = isolated compounds, Table 2, read-out: Minimum inhibitory concentration (MIC) S. Typhimurium

Row | SMILES | MIC ([1]; ATCC29212, isolated compounds) [µg/mL] | Selectivity index E. faecalis [1] | MIC [2] [µg/mL] | Selectivity index E. coli [2] | MIC [3, 16] [µg/mL] | Selectivity index S. Typhimurium ([3]; Table 2) | MIC ([4]; ATCC29213, isolated compounds) [µg/mL] | Selectivity index S. aureus [4] | MIC ([5]; ATCC27853, isolated compounds) [µg/mL] | Selectivity index P. aeruginosa [5] | CC50 at 48 h (in vitro; monkey, LC50) [µg/mL] | MIC ([7]; ATCC10231, isolated compounds) [µg/mL] | Selectivity index C. albicans [7] | further results
1 | C[C@@H]1CC[C@H]2[C@@H](C)C(=O)O[C@@H]3O[C@@]4(C)CC[C@@H]1[C@]32OO4 [Artemisinin] |  |  |  |  |  |  |  |  |  |  |  |  |  | MIC B. subtilis (B. subtilis): 90 µg/mL (≈ 319 µM); MIC Salmonella sp. (Salmonella sp.): 90 µg/mL (≈ 319 µM); MIC S. aureus (S. aureus): 90 µg/mL (≈ 319 µM)
2 | C=C1C(=O)O[C@@H]2C[C@@]3(C)CCCC(=C)[C@@H]3C[C@H]12 [Isoalantolactone] |  |  |  |  |  |  |  |  |  |  |  |  |  | IC50 (HeLa cancer cells): 8.15 ± 1.16 µM
3 | COc1cc2ccc(=O)oc2c(OC)c1O[C@H]1O[C@@H](CO)[C@H](O)[C@@H](O)[C@@H]1O [Isofraxidin-7-O-β-D-glucopyranoside, isofraxidin-7-O-β-D-glucopyranoside] | > 250 | < 0.8 | 250 (≈ 650 µM) | > 0.8 | 250 (≈ 650 µM) | > 0.8 | 250 (≈ 650 µM) | > 0.8 | > 250 | < 0.8 | > 200 | 250 (≈ 650 µM) | > 0.8 | MIC ([6]; all tested strains, read-out: MIC against all tested microorganisms): ≥ 250 µg/mL; MIC against all tested microorganisms [6]: no efficacy; Anti-bacterial effect against Staphylococcus aureus (Staphylococcus aureus): no activity; Inhibitory activity against IL-6 production (IL-6 production): 14%
4 | COc1cc2ccc(=O)oc2cc1O [Scopoletin, scopoletin] |  |  | 62.5 (≈ 325 µM) | > 3.2 |  | > 1.6 | 250 (≈ 1300 µM) | > 0.8 |  | < 0.8 |  |  | > 0.8 | MIC Staphylococcus aureus ATCC 43300 [8]: 128 µg/mL (≈ 666 µM); MIC Enterococcus faecium UCLA 192 [9]: 128 µg/mL (≈ 666 µM); EC50 [10]: 191.51 ± 0.01 µM; MIC ([1]; ATCC29212, 24 h, isolated compounds): 250 µg/mL (≈ 1300 µM); Selectivity index E. coli ([2]; listed as scopoletin): 3; MIC ([3]; read-out: Minimum inhibitory concentration (MIC) S. Typhimurium, isolated compounds, Table 2): 125 µg/mL (≈ 650 µM); MIC ([4]; ATCC29213, 24 h, isolated compounds): 250 µg/mL (≈ 1300 µM); MIC ([5]; ATCC27853, 24 h, isolated compounds): > 250 µg/mL; MIC Stenotrophomonas maltophila DMST 19079 [11]: 256 µg/mL (≈ 1330 µM); IC50 DPPH radical [12]: 1.24 µg/mL (≈ 6.45 µM); CC50 at 48 h (in vitro): > 200 µg/mL; MIC ([7]; ATCC10231, 24 h, isolated compounds): 250 µg/mL (≈ 1300 µM); EC50 [13]: 647.89 ± 0.07 µM; Activity against Candida albicans (Candida albicans): ineffective
5 | CC[C@@H](CC[C@@H](C)[C@H]1CC[C@H]2[C@@H]3CC=C4C[C@@H](O[C@H]5O[C@@H](CO)[C@H](O)[C@@H](O)[C@@H]5O)CC[C@]4(C)[C@H]3CC[C@]12C)C(C)C [Sitosterol-3-O-β-D-glucopyranoside, sitosterol-3-O-β-D-glucopyranoside] | 31.2 (≈ 54.2 µM) | > 6.4 | > 250 | < 0.8 | > 250 | < 0.8 | > 250 | < 0.8 | > 250 | < 0.8 | > 200 | 250 (≈ 433 µM) | > 0.8 | Cytotoxic effects on normal human primary fibroblasts [14]: not against normal human primary fibroblasts; MIC E. faecalis (E. faecalis): 15 µg/mL (≈ 26 µM); Selectivity index E. faecalis ([1]; listed as sitosterol-3-O-β-D-glucopyranoside): more than 6; IC50 proliferation of HepG2 cells (HepG2 cells): 4.64 ± 0.48 µg/mL; Anti-bacterial and anti-fungal activity [15]: wide spectrum of anti-bacterial and anti-fungal activity; IC50 proliferation of Huh7 cells (Huh7 cells): 5.25 ± 0.14 µg/mL; MIC P. aeruginosa (P. aeruginosa): 10 µg/mL (≈ 17.3 µM)
